Here are results for 18 compounds from patent US11192890B2, “FGFR kinase inhibitors and pharmaceutical uses” (AUCKLAND UNISERVICES LIMITED, priority 2017, dated 2021).

Data set [1] addresses T1, FGFR2 (Homo sapiens, UniProt P21802).
T1 construct: purchased Invitrogen
The experiment in a line: Isolated enzyme FRET-based Z-Lyte kinase inhibition assay. The following applies: means from 3 independent experiments; read-out: Isolate Enzyme Inhibition IC50, FGFR2. In kind it is biochemical. The method, then: (§1) FGFR1-4 and the Z-Lyte Kinase Assay Kit were purchased from Invitrogen. The concentration gradients from 5.1×10^−11 to 1.0×10^−6 mol/L were used for all the test compounds. The experiments were performed according to the instructions of the manufacturer.
(§2) FGFR1-4 isolated enzyme activity was determined using the FRET-based Z-Lyte kinase inhibition assay. The data are the means from 3 independent experiments.

In data set [2] the target is T2, FGFR3 (Homo sapiens, UniProt P22607).
T2 construct: purchased Invitrogen
T2 sequence (P22607 23-806): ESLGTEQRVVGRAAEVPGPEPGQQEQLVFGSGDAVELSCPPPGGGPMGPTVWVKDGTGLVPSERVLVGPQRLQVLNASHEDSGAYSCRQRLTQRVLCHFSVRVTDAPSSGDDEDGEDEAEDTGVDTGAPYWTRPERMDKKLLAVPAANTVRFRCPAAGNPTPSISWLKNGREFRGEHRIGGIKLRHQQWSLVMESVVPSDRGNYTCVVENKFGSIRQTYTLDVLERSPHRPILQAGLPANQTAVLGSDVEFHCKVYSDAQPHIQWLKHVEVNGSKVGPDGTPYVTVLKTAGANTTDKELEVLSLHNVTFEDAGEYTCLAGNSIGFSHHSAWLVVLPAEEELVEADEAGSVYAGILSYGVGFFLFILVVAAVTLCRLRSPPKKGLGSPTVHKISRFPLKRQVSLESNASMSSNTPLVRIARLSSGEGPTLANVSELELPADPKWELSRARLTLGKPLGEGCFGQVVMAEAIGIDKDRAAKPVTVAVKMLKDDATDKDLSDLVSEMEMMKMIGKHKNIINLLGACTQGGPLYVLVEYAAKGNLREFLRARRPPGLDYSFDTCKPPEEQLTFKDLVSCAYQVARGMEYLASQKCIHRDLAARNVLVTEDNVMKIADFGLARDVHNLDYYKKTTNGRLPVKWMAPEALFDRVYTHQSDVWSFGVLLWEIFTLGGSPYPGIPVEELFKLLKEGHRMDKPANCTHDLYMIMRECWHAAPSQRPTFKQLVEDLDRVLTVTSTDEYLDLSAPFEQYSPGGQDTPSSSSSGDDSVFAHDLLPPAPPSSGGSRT
Described as above. In kind it is biochemical. The following applies: means from 3 independent experiments; read-out: Isolate Enzyme Inhibition IC50, FGFR3. On the procedure: as §1, §2

Data set [3] addresses T3, FGFR1 (Homo sapiens, UniProt P11362).
T3 construct: purchased Invitrogen
The description is as above. In kind it is biochemical. The following applies: means from 3 independent experiments; read-out: Isolate Enzyme Inhibition IC50, FGFR1. On the procedure: as §1, §2

Data set [4] relates to FGFR1 in H520 cells (phospho-ERK1/2). The experiment in a line: Drug washout Western blot assay, H520 cells. In kind it is cell-based. The following applies: H520; 30 min exposure, 100 nM, with and without washout. (In general: In western blotting, separated proteins are transferred to a membrane and probed.)
Data set [5] relates to FGFR3 in SW780 cells (phospho-ERK1/2). The experiment in a line: Drug washout Western blot assay, SW780 cells. In kind it is cell-based. The following applies: SW780; 30 min exposure, 100 nM, with and without washout.

T1 sequence (P21802 22-821): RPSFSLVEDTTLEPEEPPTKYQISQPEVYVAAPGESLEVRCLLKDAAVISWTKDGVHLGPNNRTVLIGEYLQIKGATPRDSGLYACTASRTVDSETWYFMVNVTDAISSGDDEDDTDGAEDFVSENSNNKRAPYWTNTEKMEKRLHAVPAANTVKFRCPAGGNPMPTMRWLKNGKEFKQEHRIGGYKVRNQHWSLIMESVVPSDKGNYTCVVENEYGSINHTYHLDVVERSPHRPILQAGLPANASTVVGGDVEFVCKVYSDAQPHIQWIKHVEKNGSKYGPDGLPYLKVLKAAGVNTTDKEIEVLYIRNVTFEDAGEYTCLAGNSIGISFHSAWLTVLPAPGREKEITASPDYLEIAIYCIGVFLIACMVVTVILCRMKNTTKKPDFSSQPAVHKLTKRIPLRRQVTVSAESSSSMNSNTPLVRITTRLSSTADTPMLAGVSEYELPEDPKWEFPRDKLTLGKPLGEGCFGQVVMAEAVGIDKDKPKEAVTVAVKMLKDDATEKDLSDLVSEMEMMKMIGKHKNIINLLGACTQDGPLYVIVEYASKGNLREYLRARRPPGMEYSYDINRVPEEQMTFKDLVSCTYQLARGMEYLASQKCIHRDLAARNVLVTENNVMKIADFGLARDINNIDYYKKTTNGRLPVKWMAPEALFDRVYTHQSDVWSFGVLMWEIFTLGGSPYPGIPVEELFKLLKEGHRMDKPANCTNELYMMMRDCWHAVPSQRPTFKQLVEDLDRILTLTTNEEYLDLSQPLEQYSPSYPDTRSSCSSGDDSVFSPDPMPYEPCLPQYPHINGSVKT
T3 sequence (P11362 22-822): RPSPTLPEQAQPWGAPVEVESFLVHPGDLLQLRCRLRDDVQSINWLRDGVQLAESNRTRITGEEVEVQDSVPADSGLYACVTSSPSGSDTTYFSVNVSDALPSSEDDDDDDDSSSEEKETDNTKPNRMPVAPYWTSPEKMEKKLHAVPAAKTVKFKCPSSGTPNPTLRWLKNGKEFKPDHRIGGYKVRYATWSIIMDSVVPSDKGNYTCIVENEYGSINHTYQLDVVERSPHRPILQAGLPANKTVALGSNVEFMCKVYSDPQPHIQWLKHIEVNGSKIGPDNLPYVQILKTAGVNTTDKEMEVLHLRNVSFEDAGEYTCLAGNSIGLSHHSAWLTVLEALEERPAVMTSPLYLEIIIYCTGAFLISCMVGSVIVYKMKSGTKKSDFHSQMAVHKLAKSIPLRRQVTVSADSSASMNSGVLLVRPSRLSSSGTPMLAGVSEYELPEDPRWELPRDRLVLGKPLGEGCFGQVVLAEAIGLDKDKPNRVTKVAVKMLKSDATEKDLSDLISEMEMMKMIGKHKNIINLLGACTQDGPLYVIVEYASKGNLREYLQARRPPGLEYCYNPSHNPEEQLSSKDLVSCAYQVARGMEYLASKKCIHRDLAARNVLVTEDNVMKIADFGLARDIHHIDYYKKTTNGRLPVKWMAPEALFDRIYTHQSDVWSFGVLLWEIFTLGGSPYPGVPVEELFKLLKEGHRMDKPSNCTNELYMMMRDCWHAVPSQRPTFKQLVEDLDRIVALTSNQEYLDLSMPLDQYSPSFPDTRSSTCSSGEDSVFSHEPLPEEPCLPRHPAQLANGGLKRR

As to `COc1cc(OC)c(Br)c(N2Cc3cnc(NC(C)C)nc3N(C3CCN(C(=O)/C=C/CN(C)C)CC3)C2=O)c1Br` [Compound 151, (E)-3-(2,6-dibromo-3,5-dimethoxyphenyl)-1-(1-(4-(dimethylamino)but-2-enoyl)piperidin-4-yl)-7-(isopropylamino)-3,4-dihydropyrimido[4,5-d]pyrimidin-2(1H)-one], the IC50 (commonly the concentration needed to halve the response being measured) in data set [1] turned out to be 3.5 nM; in data set [2] it was 35 nM; in data set [3], 4.2 nM. Moreover, in data set [4], the “reversible or irreversible inhibition of FGFR1 in cells” value was “reversible binding characteristics”.

For `COc1cc(OC)c(Cl)c(-c2cc3cnc(NCC4CCOCC4)nc3n(C3CCN(C(=O)/C=C/CN(C)C)CC3)c2=O)c1Cl` [Compound 137, (E)-6-(2,6-dichloro-3,5-dimethoxyphenyl)-8-(1-(4-(dimethylamino)but-2-enoyl)piperidin-4-yl)-2-(((tetrahydro-2H-pyran-4-l)methyl)amino)pyrido[2,3-d]pyrimidin-7(8H)-one], the results for the IC50 in data set [1], in data set [2] and in data set [3] were 1.8 nM, 6.2 nM and 0.7 nM, respectively. Further, the “reversible or irreversible inhibition of FGFR3 in cells” value in data set [5] was “potent reversible inhibitors”.

For `COc1cc(OC)c(Br)c(-c2cc3cnc(Nc4ccccc4)nc3n(C3CCN(C(=O)/C=C/CN(C)C)CC3)c2=O)c1Br` [Compound 152, (E)-6-(2,6-dibromo-3,5-dimethoxyphenyl)-8-(1-(4-(dimethylamino)but-2-enoyl)piperidin-4-yl)-2-(phenylamino)pyrido[2,3-d]pyrimidin-7(8H)-one], the IC50 in data set [1] was determined as 1.1 nM; in data set [2] it was 2 nM; in data set [3], 0.7 nM. In data set [4], the “reversible or irreversible inhibition of FGFR1 in cells” value is on record as “potent irreversible inhibitors”.

Regarding `COc1cc(OC)c(Cl)c(N2Cc3cnc(Nc4ccncc4)nc3N(C3CCN(C(=O)/C=C/CN(C)C)CC3)C2=O)c1Cl` [Compound 159, (E)-3-(2,6-dichloro-3,5-dimethoxyphenyl)-1-(1-(4-(dimethylamino)but-2-enoyl)piperidin-4-yl)-7-(pyridin-4-ylamino)-3,4-dihydropyrimido[4,5-d]pyrimidin-2(1H)-one], the melting point (commonly the temperature, or range, at which the solid turns liquid) is above 300 °C.

`COc1cc(OC)c(Cl)c(N2Cc3cnc(Nc4cccnc4)nc3N(C3CCN(C(=O)/C=C/CN(C)C)CC3)C2=O)c1Cl` [Compound 158, (E)-3-(2,6-dichloro-3,5-dimethoxyphenyl)-1-(1-(4-(dimethylamino)but-2-enoyl)piperidin-4-yl)-7-(pyridin-3-ylamino)-3,4-dihydropyrimido[4,5-d]pyrimidin-2(1H)-one] gave a melting point of 207 to 209 °C.

As for `COc1cc(OC)c(Cl)c(-c2cc3cnc(NC(C)C)nc3n(C3CCN(C(=O)/C=C/CN(C)C)CC3)c2=O)c1Cl` [Compound 133, (E)-6-(2,6-dichloro-3,5-dimethoxyphenyl)-8-(1-(4-(dimethylamino)but-2-enoyl)piperidin-4-yl)-2-(isopropylamino)pyrido[2,3-d]pyrimidin-7(8H)-one], the IC50 was determined as 1.5 nM in data set [1], 11 nM in data set [2] and 1 nM in data set [3]. In addition, the “reversible or irreversible inhibition of FGFR1 in cells” value in data set [4] is “potent irreversible inhibitors”. For the same compound, the “reversible or irreversible inhibition of FGFR3 in cells” value in data set [5] is recorded as “potent irreversible inhibitors”.

`CNc1ncc2c(n1)N(C1CCN(C(=O)/C=C/CN3CCOCC3)CC1)C(=O)N(c1c(Cl)c(OC)cc(OC)c1Cl)C2` [Compound 123, (E)-3-(2,6-dichloro-3,5-dimethoxyphenyl)-7-(methylamino)-1-(1-(4-morpholinobut-2-enoyl)piperidin-4-yl)-3,4-dihydropyrimido[4,5-d]pyrimidin-2(1H)-one]: the IC50 in data set [1] came out at 2.7 nM; in data set [2], 8.3 nM; in data set [3], 0.7 nM. For the same compound, the “reversible or irreversible inhibition of FGFR3 in cells” value in data set [5] is “potent reversible inhibitors”.

Turning to `COc1cc(OC)c(Br)c(-c2cc3cnc(NC(C)C)cc3n(C3CCN(C(=O)/C=C/CN(C)C)CC3)c2=O)c1Br` [Compound 155, (E)-3-(2,6-dibromo-3,5-dimethoxyphenyl)-1-(1-(4-(dimethylamino)but-2-enoyl)piperidin-4-yl)-7-(isopropylamino)-1,6-naphthyridin-2(1H)-one], the melting point is 251 to 254 °C.

With `COc1cc(OC)c(Br)c(-c2cc3cnc(NC(C)C)nc3n(C3CCN(C(=O)/C=C/CN(C)C)CC3)c2=O)c1Br` [Compound 153, (E)-6-(2,6-dibromo-3,5-dimethoxyphenyl)-8-(1-(4-(dimethylamino)but-2-enoyl)piperidin-4-yl)-2-(isopropylamino)pyrido[2,3-d]pyrimidin-7(8H)-one], the figures for the IC50 in data set [1], in data set [2] and in data set [3] were 1 nM, 7.6 nM and 0.8 nM, respectively. The “reversible or irreversible inhibition of FGFR1 in cells” value in data set [4] was “potent irreversible inhibitors”.

In the case of `COc1cc(OC)c(Cl)c(-c2cc3cnc(Nc4ccccc4)nc3n(C3CCN(C(=O)/C=C/CN(C)C)CC3)c2=O)c1Cl` [Compound 138, (E)-6-(2,6-dichloro-3,5-dimethoxyphenyl)-8-(1-(4-(dimethylamino)but-2-enoyl)piperidin-4-yl)-2-(phenylamino)pyrido[2,3-d]pyrimidin-7(8H)-one], the half-maximal inhibitory concentration (IC50) in data set [1] amounted to 1.1 nM; in data set [2], 5.1 nM; in data set [3], 1.1 nM. In addition, the “reversible or irreversible inhibition of FGFR1 in cells” value in data set [4] is “potent irreversible inhibitors”.

As for `CNc1ncc2c(n1)N(C1CCC(NC(=O)/C=C/CN(C)C)CC1)C(=O)N(c1c(Cl)c(OC)cc(OC)c1Cl)C2` (stereo not drawn) [Compound 126, (E)-N-(4-(3-(2,6-dichloro-3,5-dimethoxyphenyl)-7-(methylamino)-2-oxo-3,4-dihydropyrimido[4,5-d]pyrimidin-1(2H)-yl)cyclohexyl)-4-(dimethylamino)but-2-enamide], the IC50 in data set [1] came out at 1.5 nM; in data set [2], 6.8 nM; in data set [3] it was 0.5 nM. Moreover, the “reversible or irreversible inhibition of FGFR3 in cells” value in data set [5] is “potent reversible inhibitors”.

The compound `COc1cc(OC)c(Cl)c(N2Cc3cnc(Nc4ccccn4)nc3N(C3CCN(C(=O)/C=C/CN(C)C)CC3)C2=O)c1Cl` [Compound 157, (E)-3-(2,6-dichloro-3,5-dimethoxyphenyl)-1-(1-(4-(dimethylamino)but-2-enoyl)piperidin-4-yl)-7-(pyridin-2-ylamino)-3,4-dihydropyrimido[4,5-d]pyrimidin-2(1H)-one] returned a melting point of 224 to 227 °C.

Regarding `CCNc1ncc2cc(-c3c(Cl)c(OC)cc(OC)c3Cl)c(=O)n(Cc3cccc(NC(=O)/C=C/CN(C)C)c3)c2n1` [Compound 144, (E)-N-(3-((6-(2,6-dichloro-3,5-dimethoxyphenyl)-2-(ethylamino)-7-oxopyrido[2,3-d]pyrimidin-8(7H)-yl)methyl)phenyl)-4-(dimethylamino)but-2-enamide], the IC50 in data set [1] was 1.6 nM; in data set [2] it was 6.7 nM; in data set [3] it was 0.9 nM.

As to `COc1cc(OC)c(Cl)c(-c2cc3cnc(NC4CCOC4)nc3n(C3CCN(C(=O)/C=C/CN(C)C)CC3)c2=O)c1Cl` (stereo not drawn) [Compound 134, (E)-6-(2,6-dichloro-3,5-dimethoxyphenyl)-8-(1-(4-(dimethylamino)but-2-enoyl)piperidin-4-yl)-2-((tetrahydrofuran-3-yl)amino)pyrido[2,3-d]pyrimidin-7(8H)-one], the results for the IC50 in data set [1], in data set [2] and in data set [3] were 1.6 nM, 11 nM and 1.1 nM, respectively.

In turn, `CNc1cc2c(cn1)cc(-c1c(Cl)c(OC)cc(OC)c1Cl)c(=O)n2C1CCN(C(=O)/C=C/CN(C)C)CC1` [Compound 148, (E)-3-(2,6-dichloro-3,5-dimethoxyphenyl)-1-(1-(4-(dimethylamino)but-2-enoyl)piperidin-4-yl)-7-(methylamino)-1,6-naphthyridin-2(1H)-one] came in with a melting point of 209 to 212 °C.

Regarding `COc1cccc(Nc2ncc3cc(-c4c(Cl)c(OC)cc(OC)c4Cl)c(=O)n(C4CCN(C(=O)/C=C/CN(C)C)CC4)c3n2)c1` [Compound 140, (E)-6-(2,6-dichloro-3,5-dimethoxyphenyl)-8-(1-(4-(dimethylamino)but-2-enoyl)piperidin-4-yl)-2-((3-methoxyphenyl)amino)pyrido[2,3-d]pyrimidin-7(8H)-one], the IC50 in data set [1] was found to be 0.9 nM; in data set [2], 4.9 nM; in data set [3] it was 0.7 nM.

`COc1cc(Nc2ncc3cc(-c4c(Cl)c(OC)cc(OC)c4Cl)c(=O)n(C4CCN(C(=O)/C=C/CN(C)C)CC4)c3n2)ccc1F` [Compound 141, (E)-6-(2,6-dichloro-3,5-dimethoxyphenyl)-8-(1-(4-(dimethylamino)but-2-enoyl)piperidin-4-yl)-2-((4-fluoro-3-methoxyphenyl)amino)pyrido[2,3-d]pyrimidin-7(8H)-one]: the IC50 in data set [1] was found to be 1.5 nM; in data set [2], 5.5 nM; in data set [3], 0.7 nM.

In the case of `COc1cc(OC)c(Cl)c(-c2cc3cnc(Nc4ccccc4)cc3n(C3CCN(C(=O)/C=C/CN(C)C)CC3)c2=O)c1Cl` [Compound 232, (E)-3-(2,6-dichloro-3,5-dimethoxyphenyl)-1-(1-(4-(dimethylamino)but-2-enoyl)piperidin-4-yl)-7-(phenylamino)-1,6-naphthyridin-2(1H)-one], the melting point lay within 230 to 233 °C.
